Laboratory results from ChEMBL document CHEMBL5620342, “Recent advances of novel fourth generation EGFR inhibitors in overcoming C797S mutation of lung cancer therapy” (Eur J Med Chem, 2023).

Tests used:
[1] = Inhibition of EGFR-C797S/T790M/del19 mutant in mouse BaF3 cells assessed as reduction in EGFR phosphorylation incubated for 6 hrs by Western blotting analysis; type: cell-based; conditions: BaF3, 6 h
[2] = test system: PC-9; experiment: Antiproliferative activity against human PC-9 cells assessed as inhibition of cell growth incubated for 72 hrs by MTT assay; type: functional, cell-based; conditions: PC-9, 72 h
[3] = test system: PC-9; experiment: Antitumor activity in OR-resistant human PC-9 cells xenografted in […] assessed as tumor growth inhibition at 60 mg/kg, po administered once daily for 14 days relative to control; type: functional; conditions: PC-9, 336 h, time 14 day, read-out: TGI
[4] = test system: PC-9; experiment: Antiproliferative activity against human PC-9 cells expressing EGFR Del19 mutant assessed as inhibition of cell growth measured after 72 hrs by MTT assay; type: functional, cell-based; conditions: PC-9, 72 h
[5] = test system: BaF3; experiment: Cytotoxicity against mouse BaF3 cells harboring EGFR-Del19/T790M/C797S mutant assessed as cell growth inhibition measured after 72 hrs by CellTiter-Glo luminescent assay; type: functional, cell-based; conditions: BaF3, 72 h
[6] = target: T1, Epidermal growth factor receptor (Homo sapiens, UniProt P00533, C797S/L858R/T790M); experiment: Inhibition of EGFR L858R/T790M/C797S triple mutant (unknown origin)
T1 sequence (P00533 25-1210 T790M/C797S/L858R limits assumed): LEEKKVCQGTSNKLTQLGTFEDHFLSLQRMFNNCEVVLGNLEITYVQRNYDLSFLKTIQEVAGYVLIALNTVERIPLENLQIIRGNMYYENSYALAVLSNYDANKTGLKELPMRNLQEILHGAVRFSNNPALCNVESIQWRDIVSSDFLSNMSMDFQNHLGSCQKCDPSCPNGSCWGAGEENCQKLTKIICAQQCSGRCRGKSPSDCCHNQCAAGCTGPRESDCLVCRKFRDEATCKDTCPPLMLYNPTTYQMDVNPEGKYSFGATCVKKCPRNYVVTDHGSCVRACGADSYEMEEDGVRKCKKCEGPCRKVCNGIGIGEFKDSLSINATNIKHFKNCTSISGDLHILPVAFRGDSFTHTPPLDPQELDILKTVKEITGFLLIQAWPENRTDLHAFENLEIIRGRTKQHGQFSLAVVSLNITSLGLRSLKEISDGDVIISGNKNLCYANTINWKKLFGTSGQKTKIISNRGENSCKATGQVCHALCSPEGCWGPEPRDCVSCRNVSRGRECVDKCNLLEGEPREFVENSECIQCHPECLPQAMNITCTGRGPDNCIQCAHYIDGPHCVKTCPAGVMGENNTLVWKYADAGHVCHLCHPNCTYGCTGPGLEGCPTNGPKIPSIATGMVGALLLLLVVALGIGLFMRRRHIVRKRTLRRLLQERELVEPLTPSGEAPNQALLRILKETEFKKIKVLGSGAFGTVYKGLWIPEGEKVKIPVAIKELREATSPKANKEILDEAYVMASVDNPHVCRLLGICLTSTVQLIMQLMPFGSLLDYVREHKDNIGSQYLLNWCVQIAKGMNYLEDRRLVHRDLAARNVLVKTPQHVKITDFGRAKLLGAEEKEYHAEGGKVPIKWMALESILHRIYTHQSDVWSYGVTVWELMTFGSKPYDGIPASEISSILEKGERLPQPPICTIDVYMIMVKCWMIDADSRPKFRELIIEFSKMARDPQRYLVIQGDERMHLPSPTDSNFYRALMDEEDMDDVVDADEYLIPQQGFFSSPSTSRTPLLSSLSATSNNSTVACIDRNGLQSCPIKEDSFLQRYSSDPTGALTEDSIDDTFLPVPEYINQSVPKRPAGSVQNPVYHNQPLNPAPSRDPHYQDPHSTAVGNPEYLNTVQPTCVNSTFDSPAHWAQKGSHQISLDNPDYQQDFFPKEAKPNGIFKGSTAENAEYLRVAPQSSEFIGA

[7] = test system: PC-9; experiment: Antitumor activity in OR-resistant human PC-9 cells xenografted in […] assessed as tumor growth inhibition at 30 mg/kg, po administered once daily for 14 days relative to control; type: functional; conditions: PC-9, 336 h, time 14 day, read-out: TGI
[8] = test system: BaF3; experiment: Antiproliferative activity against mouse BaF3 cells harboring EGFR L858R/T790M/C797S triple mutant after 72 hrs by resazurin dye-based fluorescence assay; type: functional, cell-based; conditions: BaF3, 72 h
[9] = test system: BaF3; experiment: Cytotoxicity against mouse BaF3 cells harboring EGFR L858R/T790M/C797S mutant assessed as reduction in cell viability incubated for 96 hrs by CellTiter-Glo assay; type: functional, cell-based; conditions: BaF3, 96 h
[10] = test system: BaF3; experiment: Cytotoxicity against mouse BaF3 cells harboring wild type EGFR assessed as reduction in cell viability incubated for 72 hrs by CellTiter-Glo assay; type: functional, cell-based; conditions: BaF3, 72 h
[11] = Inhibition of EGFR T790M/C797S double mutant (unknown origin); parameters: species or system Homo sapiens
[12] = target: T1, Epidermal growth factor receptor; experiment: Inhibition of EGFR L858R/T790M/C797S mutant (unknown origin) using TK-substrate preincubated with enzyme for 30 mins followed by substrate for 10 mins by HTRF assay
[13] = target: Epidermal growth factor receptor (Homo sapiens, UniProt P00533); experiment: Inhibition of wild type EGFR (unknown origin) by ELISA analysis
Epidermal growth factor receptor (Homo sapiens, UniProt P00533), sequence (P00533 whole entry): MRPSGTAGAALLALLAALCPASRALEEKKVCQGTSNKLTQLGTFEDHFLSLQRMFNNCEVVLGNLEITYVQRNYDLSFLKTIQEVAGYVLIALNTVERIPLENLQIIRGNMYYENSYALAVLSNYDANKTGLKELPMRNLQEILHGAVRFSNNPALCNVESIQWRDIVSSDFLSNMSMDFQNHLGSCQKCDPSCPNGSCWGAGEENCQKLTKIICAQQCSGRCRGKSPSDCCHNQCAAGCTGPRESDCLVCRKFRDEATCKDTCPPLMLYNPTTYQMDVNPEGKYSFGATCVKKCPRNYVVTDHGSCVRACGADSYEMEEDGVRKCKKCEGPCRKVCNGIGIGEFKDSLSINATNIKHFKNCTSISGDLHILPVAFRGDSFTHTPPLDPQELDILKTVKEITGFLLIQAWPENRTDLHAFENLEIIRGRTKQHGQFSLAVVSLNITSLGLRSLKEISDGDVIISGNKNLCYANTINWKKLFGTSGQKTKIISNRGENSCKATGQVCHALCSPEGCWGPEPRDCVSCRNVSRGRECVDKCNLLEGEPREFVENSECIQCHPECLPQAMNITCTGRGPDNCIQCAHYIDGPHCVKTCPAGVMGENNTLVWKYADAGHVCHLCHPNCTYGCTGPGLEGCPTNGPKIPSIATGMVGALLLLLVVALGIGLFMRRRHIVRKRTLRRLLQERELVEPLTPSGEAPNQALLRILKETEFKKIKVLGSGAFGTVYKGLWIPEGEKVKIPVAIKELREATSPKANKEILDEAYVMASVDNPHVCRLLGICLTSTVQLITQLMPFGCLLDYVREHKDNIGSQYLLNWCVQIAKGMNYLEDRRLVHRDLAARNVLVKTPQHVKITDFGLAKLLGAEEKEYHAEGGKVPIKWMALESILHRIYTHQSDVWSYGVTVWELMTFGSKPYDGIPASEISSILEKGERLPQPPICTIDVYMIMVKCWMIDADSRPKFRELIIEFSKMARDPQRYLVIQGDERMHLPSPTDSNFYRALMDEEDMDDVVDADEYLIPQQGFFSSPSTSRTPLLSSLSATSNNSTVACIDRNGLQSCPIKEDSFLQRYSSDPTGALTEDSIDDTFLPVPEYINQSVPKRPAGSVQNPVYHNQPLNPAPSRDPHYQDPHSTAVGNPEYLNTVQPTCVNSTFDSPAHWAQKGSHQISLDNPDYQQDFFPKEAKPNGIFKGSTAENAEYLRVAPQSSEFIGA

[14] = test system: BaF3; experiment: Cytotoxicity against mouse BaF3 cells harboring EGFR-Del19/T790M/C797S mutant assessed as cell growth inhibition measured after 96 hrs by CellTiter-Glo luminescent assay; type: functional, cell-based; conditions: BaF3, 96 h
[15] = test system: BaF3; experiment: Antiproliferative activity against mouse BaF3 cells harboring wild type EGFR assessed as reduction in cell growth; type: functional, cell-based
[16] = target: T1, Epidermal growth factor receptor; experiment: (§1) Inhibition of […]/T790M/C797S triple mutant (unknown origin) phosphorylation expressed in mouse BaF3 cells by HTRF assay; type: cell-based
[17] = Oral bioavailability in CD-1 mouse at 3 mg/kg measured after 24 hrs by LC-MS/MS analysis; type: ADME, organism-based; conditions: in vivo
[18] = target: T1, Epidermal growth factor receptor; experiment: Inhibition of EGFR L858R/T790M/C797S triple mutant (unknown origin) expressed in Bac-to-Bac baculovirus expression system measured after 2 hrs by ELISA method
[19] = test system: NIH3T3; experiment: Antiproliferative activity against mouse NIH3T3 cells expressing EGFR Del19/T790M/C797S mutant assessed as reduction in cell proliferation incubated for 72 hrs by MTT assay; type: functional, cell-based; conditions: NIH3T3, 72 h
[20] = test system: A-431; experiment: Antiproliferative activity against human A-431 cells […] assessed as reduction in cell growth; type: functional, cell-based
[21] = test system: A-431; experiment: Cytotoxicity against human A-431 cells expressing wild type EGFR assessed as reduction in cell viability incubated for 96 hrs by CellTiter-Glo assay; type: functional, cell-based; conditions: A-431, 96 h
[22] = test system: BaF3; experiment: Inhibition of EGFR phosphorylation in mouse BaF3 cells harboring EGFR L858R/T790M/C797S triple mutant at 10 uM by Western blotting analysis; type: cell-based
[23] = test system: BaF3; experiment: Inhibition of cell proliferation of mouse BaF3 cells expressing EGFR Del19/T790M/C797S mutant (unknown origin); type: functional, cell-based
[24] = test system: BaF3; experiment: Cytotoxicity against mouse BaF3 cells expressing EGFR L858R mutant assessed as reduction in cell viability; type: functional, cell-based
[25] = cells; conditions: Mus musculus, Ba/F3 EGFR-T790M/C797S/L858R
[26] = target: Epidermal growth factor receptor (Homo sapiens, UniProt P00533, T790M/C797S/L858R); experiment: as §1; type: cell-based; conditions: baf3
Epidermal growth factor receptor (Homo sapiens, UniProt P00533, T790M/C797S/L858R), sequence (P00533 25-1210 T790M/C797S/L858R limits assumed): as the sequence (P00533 25-1210 T790M/C797S/L858R limits assumed) above

Question: What does the source list for `CN1CCN(c2ccc(Nc3ncc(Cl)c(Nc4ccccc4P(C)(C)=O)n3)c(Br)c2)CC1`?
Answer: IC50 [1]: 2.4 nM; IC50 [2]: 180 nM; inhibition in vivo at 60 mg/kg [3]: 137%; IC50 [4]: 230 nM; IC50 [5]: 90 nM; IC50 [6]: 3.1 nM; inhibition in vivo at 30 mg/kg [7]: 83.5%; IC50 [8]: 120 nM

Question: What does the source list for `C=CC(=O)Nc1cc(Nc2nccc(-c3cn(C)c4ccccc34)n2)c(OC)cc1N(C)CCN(C)C` [OSIMERTINIB]?
Answer: IC50 [2]: 4850 nM; IC50 [4]: 80 nM; IC50 [5]: 3380 nM; IC50 [8]: 4140 nM

Question: With `O=C(Nc1nccs1)C(c1cc(F)ccc1O)N1Cc2ccccc2C1=O` (configuration not stated) as the compound, how does the IC50 [9] read?
Answer: > 10000 nM

Question: And the IC50 [10]?
Answer: > 10 µM

Question: Which results are given for `Cc1cc(N2Cc3ccccc3C2)nc2ccc(Cl)cc12`?
Answer: IC50 [11]: 10.8 nM; IC50 [12]: 130 nM; IC50 [13]: 7.59 nM

Question: For `COc1ccc(-c2c3c4cc(OCCCN(C)C)c(OCCCN(C)C)cc4oc(=O)c3n3ccc4cc(O)c(OC)cc4c23)cc1O`, which IC50 [14] is on record?
Answer: 127 nM

Question: What about the IC50 [15] of the same compound?
Answer: 520 nM

Question: With `CN1CCN(c2ccc(Nc3ncc4cc(CNc5ccccc5)n(C5CCCC5)c4n3)cc2)CC1` as the compound, how does the IC50 [16] read?
Answer: 10 nM

Question: Which bioavailability [17] does the source give for `COc1cc(N2CCC(N3CCN(CCC#Cc4cccc5c4CN(C4CCC(=O)NC4=O)C5=O)CC3)CC2)ccc1Nc1ncc(Cl)c(Nc2ccccc2P(C)(C)=O)n1` (configuration not stated) here?
Answer: 62.3%

Question: With `CC(C)n1c2cc(Nc3ccnc(-c4cnn(S(=O)(=O)C5CC5)c4)n3)ncc2c2c(OCC(F)(F)F)cc(N3CCN(C)CC3)cc21` as the compound, how does the IC50 [16] read?
Answer: 0.25 nM

Question: What about the IC50 [18] of the same compound?
Answer: 0.28 nM

Question: What about the IC50 [19] of the same compound?
Answer: 20 nM

Question: And the IC50 [20]?
Answer: 1200 nM

Question: What about the IC50 [21] of the same compound?
Answer: 1200 nM

Question: With `c1ccc(-c2cc(N3Cc4ccccc4C3)nc3ccccc23)cc1` as the compound, how does the IC50 [11] read?
Answer: 11.2 nM

Question: And the IC50 [12]?
Answer: 124 nM

Question: And the IC50 [13]?
Answer: 7.9 nM

Question: Which inhibition [22] does the source give for `Oc1ccccc1-c1nc(NCC2CCOC2)c2ccccc2n1` (configuration not stated) here?
Answer: 91%

Question: For `CO[C@@H]1CCN(c2nccc(Nc3cc4c(C(C)C)ccc(N5C[C@H](CS(C)(=O)=O)[C@H]5C)c4cn3)n2)C[C@@H]1F` [TIGOZERTINIB], which IC50 [23] is on record?
Answer: 3.2 nM

Question: What about the IC50 [9] of the same compound?
Answer: 4 nM

Question: What does the source list for `COc1cc(N2CCN(C(C)=O)CC2)ccc1Nc1ncc(Cl)c(Nc2ccc(NCc3ccc(S(=O)(=O)F)cc3)cc2)n1`?
Answer: IC50 [24]: 110 nM; IC50 [23]: > 10000 nM

Question: With `N#Cc1ccc(O)c(-c2nc(NCc3cccnc3)c3ccccc3n2)c1` as the compound, how does the inhibition [22] read?
Answer: 94.2%

Question: For `Cc1cc(N2CCN(C(c3ccccc3)c3ccccc3)CC2)nc2ccc(Cl)cc12`, which IC50 [11] is on record?
Answer: 10.5 nM

Question: What about the IC50 [12] of the same compound?
Answer: 136 nM

Question: What about the IC50 [13] of the same compound?
Answer: 7.92 nM

Question: For `COc1cc(N2CCN(CCCCCCCC(=O)N[C@@H](C(=O)N3C[C@@H](O)C[C@@H]3C(=O)N[C@H](C)c3ccc(-c4nc(C)cs4)cc3)C(C)(C)C)CC2)ccc1Nc1ncc(Cl)c(Nc2ccccc2P(C)(C)=O)n1`, which IC50 [25] is on record?
Answer: 20 nM

Question: For `CNC(=O)c1cnc(Nc2ccnc(N3CCC(O)CC3)n2)cc1NC(C)C`, which IC50 [26] is on record?
Answer: 266 nM

Question: Which IC50 [23] does the source give for `CCC(=O)N[C@H]1CC[C@@H](N2C(=O)N(c3ccccc3Cl)Cc3cnc(Nc4ccc(N5CCN(C)CC5)c(C)c4)nc32)CC1` here?
Answer: 316 nM

Question: And the IC50 [9]?
Answer: 290 nM
